# Laboratory results as given in patent EP4671247A1, “SUBSTITUTED PYRAZOLOPYRIMIDINE COMPOUND AND PHARMACEUTICAL USE THEREOF” (Japan Tobacco Inc., priority 2023, dated 2024).
# Target: T1, NLRP3 inflammasome (Homo sapiens, UniProt Q96P20)
# T1 construct: host or cells: THP1-Null cells (PMA-differentiated, LPS-primed, nigericin-stimulated)
# Experiment: Evaluation of NLRP3 inflammasome inhibitory activity (inhibition of IL-1β production in LPS/Nigericin-stimulated THP1-Null cells, AlphaLISA)
# Assay type: cell-based
# Conditions: IL-1β production in THP1-Null cells; PMA, 1 µg/mL Lipopolysaccharides 3 hours, Nigericin 7.5 µmol/L 1.5 hours; read-out: IC50
# Outline: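 THP1-Null cells were primed with 1 µg/mL LPS, then given test compound and stimulated with nigericin. IL-1β in the culture supernatant was quantified by AlphaLISA. Inhibition was calculated with blank wells set as 100% and control wells as 0%.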
# T1 sequence (Q96P20 whole entry): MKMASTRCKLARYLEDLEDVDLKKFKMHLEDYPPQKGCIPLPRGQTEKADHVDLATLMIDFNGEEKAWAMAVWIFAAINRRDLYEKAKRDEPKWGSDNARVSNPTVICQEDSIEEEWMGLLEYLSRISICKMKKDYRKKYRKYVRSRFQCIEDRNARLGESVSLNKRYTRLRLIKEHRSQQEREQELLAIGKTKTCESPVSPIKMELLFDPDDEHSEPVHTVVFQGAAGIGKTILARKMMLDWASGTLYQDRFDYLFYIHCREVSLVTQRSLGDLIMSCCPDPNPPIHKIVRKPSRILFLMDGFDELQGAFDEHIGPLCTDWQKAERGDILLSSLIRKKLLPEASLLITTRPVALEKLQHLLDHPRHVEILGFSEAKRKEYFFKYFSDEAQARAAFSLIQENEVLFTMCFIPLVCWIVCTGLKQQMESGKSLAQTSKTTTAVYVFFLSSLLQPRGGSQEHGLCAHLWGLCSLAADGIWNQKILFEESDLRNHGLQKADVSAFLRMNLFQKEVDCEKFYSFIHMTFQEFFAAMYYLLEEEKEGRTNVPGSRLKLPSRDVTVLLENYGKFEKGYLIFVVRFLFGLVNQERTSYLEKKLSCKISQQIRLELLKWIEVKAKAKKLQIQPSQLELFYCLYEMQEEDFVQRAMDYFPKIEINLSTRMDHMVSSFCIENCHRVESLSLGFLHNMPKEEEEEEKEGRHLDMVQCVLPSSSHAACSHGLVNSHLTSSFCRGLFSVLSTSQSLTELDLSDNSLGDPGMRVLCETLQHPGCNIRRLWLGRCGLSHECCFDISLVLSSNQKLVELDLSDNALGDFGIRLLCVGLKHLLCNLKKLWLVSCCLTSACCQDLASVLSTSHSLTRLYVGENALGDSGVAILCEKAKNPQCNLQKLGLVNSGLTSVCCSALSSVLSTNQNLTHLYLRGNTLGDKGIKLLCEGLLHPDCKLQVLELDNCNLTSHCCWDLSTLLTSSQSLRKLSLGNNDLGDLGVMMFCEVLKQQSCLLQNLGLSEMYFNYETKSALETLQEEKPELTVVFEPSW
row,SMILES,IC50 [nM]
1,O=c1[nH]c(C2CC2)nc2nn(-c3ccc(C4CC4)cc3C(F)(F)F)cc12 [Example 198],11
2,Cc1cc(C2CC2)cc(C)c1-n1cc2c(=O)[nH]c(C#N)nc2n1 [Example 199],240
3,COCc1nc2nn(-c3c(C)cc(C(C)(F)F)cc3C)cc2c(=O)[nH]1 [Example 200],75
4,Cc1cc(C2CC2)cc(C)c1-n1cc2c(=O)[nH]c(C(=O)NC3COC3)nc2n1 [Example 201],740
5,Cc1cc(C(C)(F)F)cc(C)c1-n1cc2c(=O)[nH]c(COC(F)F)nc2n1 [Example 202],40
6,Cc1cc(C2CC2)cc(C)c1-n1cc2c(=O)[nH]c(C(N)=O)nc2n1 [Example 203],290
7,Cc1cc(C2CC2)cc(C)c1-n1cc2c(=O)[nH]c(C(=O)NCC(F)F)nc2n1 [Example 204],50
8,CCNC(=O)c1nc2nn(-c3c(C)cc(C4CC4)cc3C)cc2c(=O)[nH]1 [Example 205],11
9,CC(=O)c1nc2nn(-c3c(C)cc(C(C)(F)F)cc3C)cc2c(=O)[nH]1 [Example 206],360
10,CNC(=O)c1nc2nn(-c3c(C)cc(C(C)(F)F)cc3C)cc2c(=O)[nH]1 [Example 207],270
11,Cc1cc(C(C)(F)F)cc(C)c1-n1cc2c(=O)[nH]c(CCO)nc2n1 [Example 208],66
12,Cc1cc(OC(F)F)cc(C)c1-n1cc2c(=O)[nH]c(CCO)nc2n1 [Example 209],25
13,O=c1[nH]c(C2CC2)nc2nn(-c3cc4c(cc3Cl)OCCC4)cc12 [Example 211],27

# Same assay, conditions: test compound at 24 µM; IL-1β production in THP1-Null cells
row,SMILES,inhibition at 24 µM [%]
1,"COc1nc(C)nc2nn(-c3c(C)cc(Br)cc3C)cc12 [Example 210, 2-(4-bromo-2,6-dimethylphenyl)-4-methoxy-6-methyl-2H-pyrazolo[3,4-d]pyrimidine]",9
